Measured values from patent US9708316B2 (BRISTOL-MYERS SQUIBB COMPANY, priority 2014, dated 2017).

Key:
HIS-TGFβR1 T204D = target: T1, HIS-TGFβR1 T204D (Homo sapiens, UniProt P36897, T204D); assay: HTRF probe-displacement assay, HIS-TGFβR1 T204D; type: binding; details: read-out: TGFβR1 (μM) IC50
T1 sequence (P36897 34-503 T204D): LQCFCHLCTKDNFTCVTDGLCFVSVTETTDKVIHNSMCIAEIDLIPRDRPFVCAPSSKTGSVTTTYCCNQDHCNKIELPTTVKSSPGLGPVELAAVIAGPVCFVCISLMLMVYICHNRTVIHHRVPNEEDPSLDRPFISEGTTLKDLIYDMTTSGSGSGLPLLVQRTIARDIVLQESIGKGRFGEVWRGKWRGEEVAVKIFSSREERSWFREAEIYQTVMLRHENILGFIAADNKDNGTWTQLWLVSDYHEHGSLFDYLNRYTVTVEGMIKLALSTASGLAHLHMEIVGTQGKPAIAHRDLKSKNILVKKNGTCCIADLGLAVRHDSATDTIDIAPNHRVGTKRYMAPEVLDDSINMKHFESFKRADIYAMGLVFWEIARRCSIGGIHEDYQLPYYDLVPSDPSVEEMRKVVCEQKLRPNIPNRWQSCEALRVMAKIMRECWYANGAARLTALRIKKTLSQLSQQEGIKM

HIS-TGFβR2 WT = HIS-TGFβR2 WT (Homo sapiens, UniProt P37173); assay: HTRF probe-displacement assay, HIS-TGFβR2 WT; type: binding
Chain of HIS-TGFβR2 WT (P37173 23-567): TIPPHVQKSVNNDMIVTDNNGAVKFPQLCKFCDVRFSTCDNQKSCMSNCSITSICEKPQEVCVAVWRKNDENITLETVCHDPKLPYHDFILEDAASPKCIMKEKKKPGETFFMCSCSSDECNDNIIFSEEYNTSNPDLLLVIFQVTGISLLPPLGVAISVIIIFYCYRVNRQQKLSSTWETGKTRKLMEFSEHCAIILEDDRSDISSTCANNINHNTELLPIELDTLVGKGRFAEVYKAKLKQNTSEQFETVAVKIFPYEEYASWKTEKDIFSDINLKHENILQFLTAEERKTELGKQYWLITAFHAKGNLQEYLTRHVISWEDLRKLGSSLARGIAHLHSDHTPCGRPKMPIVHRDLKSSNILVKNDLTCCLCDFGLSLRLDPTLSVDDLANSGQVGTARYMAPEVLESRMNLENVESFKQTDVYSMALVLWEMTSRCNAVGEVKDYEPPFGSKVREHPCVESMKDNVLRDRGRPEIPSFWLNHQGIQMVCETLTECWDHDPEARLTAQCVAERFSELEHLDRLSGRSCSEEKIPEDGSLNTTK

Row | SMILES | IC50 (HIS-TGFβR1 T204D) | IC50 (HIS-TGFβR2 WT)
1 | COc1ccnc(-c2c(-c3ccnc(NC(C)=O)c3)[nH]c3cccnc23)c1 [Example 28, N-{4-[3-(4-Methoxypyridin-2-yl)-1H-pyrrolo[3,2-b]pyridin-2-yl]pyridin-2-yl}acetamide] | 0.2 µM | 6.05 µM
2 | O=C(CN1CCOCC1)Nc1cc(-c2[nH]c3cc(Cl)cnc3c2-c2ccc(F)cn2)ccn1 [Example 74, N-{4-[6-Chloro-3-(5-fluoropyridin-2-yl)-1H-pyrrolo[3,2-b]pyridin-2-yl]pyridin-2-yl}-2-(morpholin-4-yl)acetamide] | 0.001 µM | 2.6 µM
3 | COc1ccc(-c2c(-c3ccnc(NC(C)=O)c3)[nH]c3c(Cl)ccnc23)nc1 [Example 62, N-{4-[7-Chloro-3-(5-methoxypyridin-2-yl)-1H-pyrrolo[3,2-b]pyridin-2-yl]pyridin-2-yl}acetamide] | 0.009 µM | > 15 µM
4 | COc1cnc2c(-c3ccc(F)c(C)n3)c(-c3ccnc(NC(C)=O)c3)[nH]c2c1 [Example 51, N-{4-[3-(5-Fluoro-6-methylpyridin-2-yl)-6-methoxy-1H-pyrrolo[3,2-b]pyridin-2-yl]pyridin-2-yl}acetamide] | 0.002 µM | 0.61 µM
5 | CNC(=O)c1ccnc2c(-c3ccc(OC)nc3)c(-c3ccnc(NC(C)=O)c3)[nH]c12 [Example 57, 2-(2-Acetamidopyridin-4-yl)-3-(6-methoxypyridin-3-yl)-N-methyl-1H-pyrrolo[3,2-b]pyridine-7-carboxamide] | 0.019 µM | 0.11 µM
6 | CC(=O)Nc1cc(-c2[nH]c3c(C(=O)NC(CO)CO)cc(Cl)nc3c2-c2cccnc2)ccn1 [Example 60, 5-Chloro-N-(1,3-dihydroxypropan-2-yl)-2-(2-acetamidopyridin-4-yl)-3-(pyridin-3-yl)-1H-pyrrolo[3,2-b]pyridine-7-carboxamide] | 0.32 µM | 6.65 µM
7 | CC(=O)Nc1cc(-c2[nH]c3c(CN(C)C)ccnc3c2-c2cccc(C(F)F)n2)ccn1 [Example 141, N-(4-{3-[6-(Difluoromethyl)pyridin-2-yl]-7-[(dimethylamino)methyl]-1H-pyrrolo[3,2-b]pyridin-2-yl}pyridin-2-yl)acetamide] | 0.003 µM | 27.3 µM
8 | COC(=O)Nc1cc(-c2[nH]c3cccnc3c2-c2ccc(OC)nc2)ccn1 [Example 84, Methyl N-{4-[3-(6-methoxypyridin-3-yl)-1H-pyrrolo[3,2-b]pyridin-2-yl]pyridin-2-yl}carbamate] | 0.002 µM | 0.13 µM
9 | CC(=O)Nc1cc(-c2[nH]c3c(CCO)ccnc3c2-c2cccc(C(F)F)n2)ccn1 [Example 155, N-(4-{3-[6-(Difluoromethyl)pyridin-2-yl]-7-(2-hydroxyethyl)-1H-pyrrolo[3,2-b]pyridin-2-yl}pyridin-2-yl)acetamide] | 0.001 µM | 3.47 µM
10 | COC(=O)Nc1cc(-c2[nH]c3cc(OC)cnc3c2-c2ccc(OC)cn2)ccn1 [Example 124, Methyl N-{4-[6-methoxy-3-(5-methoxypyridin-2-yl)-1H-pyrrolo[3,2-b]pyridin-2-yl]pyridin-2-yl}carbamate] | 0.001 µM | 12.8 µM
11 | COc1ccc(-c2c(-c3ccnc(NC(C)=O)c3)[nH]c3ccc(F)nc23)cn1 [Example 36, N-{4-[5-Fluoro-3-(6-methoxypyridin-3-yl)-1H-pyrrolo[3,2-b]pyridin-2-yl]pyridin-2-yl}acetamide] | 0.002 µM | 0.06 µM
12 | COC(=O)Nc1cc(-c2[nH]c3cc(Cl)cnc3c2-c2ccc(F)cn2)ccn1 [Example 85, Methyl N-{4-[6-chloro-3-(5-fluoropyridin-2-yl)-1H-pyrrolo[3,2-b]pyridin-2-yl]pyridin-2-yl}carbamate] | 0.01 µM | 4.05 µM
13 | COc1cnc2c(-c3nc(C)ccc3F)c(-c3ccnc(NC(C)=O)c3)[nH]c2c1 [Example 111, N-(4-(3-(3-Fluoro-6-methylpyridin-2-yl)-6-methoxy-1H-pyrrolo[3,2-b]pyridin-2-yl)pyridin-2-yl)acetamide] | 0.002 µM | 2.42 µM
14 | CC(=O)Nc1cc(-c2[nH]c3c(Cl)ccnc3c2-c2cccc(F)n2)ccn1 [Example 64, N-{4-[7-Chloro-3-(6-fluoropyridin-2-yl)-1H-pyrrolo[3,2-b]pyridin-2-yl]pyridin-2-yl}acetamide] | 0.009 µM | 0.3 µM
15 | CC(=O)Nc1cc(-c2[nH]c3c(CO)ccnc3c2-c2cccc(C(F)F)n2)ccn1 [Example 142, N-(4-{3-[6-(Difluoromethyl)pyridin-2-yl]-7-(hydroxymethyl)-1H-pyrrolo[3,2-b]pyridin-2-yl}pyridin-2-yl)acetamide] | 0.001 µM | 7.81 µM
16 | CC(=O)Nc1cc(-c2[nH]c3cccnc3c2-c2cc(C)cc(Cl)n2)ccn1 [Example 30, N-{4-[3-(6-Chloro-4-methylpyridin-2-yl)-1H-pyrrolo[3,2-b]pyridin-2-yl]pyridin-2-yl}acetamide] | 0.32 µM | 0.49 µM
17 | COc1ccc(-c2c(-c3ccnc(NC(=O)CN4CCS(=O)(=O)CC4)c3)[nH]c3cc(OC)cnc23)nc1 [Example 118, 2-(1,1-Dioxidothiomorpholino)-N-{4-[6-methoxy-3-(5-methoxypyridin-2-yl)-1H-pyrrolo[3,2-b]pyridin-2-yl]pyridin-2-yl}acetamide] | 0.002 µM | > 15 µM
18 | COc1ccc(-c2c(-c3ccnc(NC(C)=O)c3)[nH]c3cc(F)cnc23)nc1 [Example 39, N-{4-[6-Fluoro-3-(5-methoxypyridin-2-yl)-1H-pyrrolo[3,2-b]pyridin-2-yl]pyridin-2-yl}acetamide] | 0.002 µM | > 15 µM
19 | COc1ccc(-c2c(-c3ccnc(NC(C)=O)c3)[nH]c3cc(-c4c(C)noc4C)cnc23)nc1 [Example 93, N-{4-[6-(Dimethyl-1,2-oxazol-4-yl)-3-(5-methoxypyridin-2-yl)-1H-pyrrolo[3,2-b]pyridin-2-yl]pyridin-2-yl}acetamide] | 0.003 µM | > 15 µM

The remaining lines, values ahead:

Row | IC50 (HIS-TGFβR1 T204D) | IC50 (HIS-TGFβR2 WT) | SMILES
20 | 0.006 µM | 0.01 µM | CC(=O)Nc1cc(-c2[nH]c3c(CO)ccnc3c2-c2ccc(F)nc2)ccn1 [Example 277, N-(4-(3-(6-Fluoropyridin-3-yl)-7-(hydroxymethyl)-1H-pyrrolo[3,2-b]pyridin-2-yl)pyridin-2-yl)acetamide]
21 | 0.001 µM | > 15 µM | COc1ccc(-c2c(-c3ccnc(NC(C)=O)c3)[nH]c3cc(C(O)C(F)(F)C(N)=O)cnc23)nc1 (stereo not drawn) [Example 295, 3-(2-(2-Acetamidopyridin-4-yl)-3-(5-methoxypyridin-2-yl)-1H-pyrrolo[3,2-b]pyridin-6-yl)-2,2-difluoro-3-hydroxypropanamide]
22 | 0.0275 µM | 1.53 µM | COc1nc(-c2c(-c3ccnc(NC(C)=O)c3)[nH]c3cccnc23)cs1 [Example 201, N-(4-(3-(2-Methoxythiazol-4-yl)-1H-pyrrolo[3,2-b]pyridin-2-yl)pyridin-2-yl)acetamide]
23 | 0.0746 µM | 3.28 µM | COc1cnc(-c2c(-c3ccnc(NC(C)=O)c3)[nH]c3cc(Cl)cnc23)s1 [Example 239, N-(4-(6-Chloro-3-(5-methoxythiazol-2-yl)-1H-pyrrolo[3,2-b]pyridin-2-yl)pyridin-2-yl)acetamide]
24 | 0.0007 µM | 0.548 µM | CC(=O)Nc1cc(-c2[nH]c3cccnc3c2-c2nc(C(F)F)cs2)ccn1 [Example 200, N-(4-(3-(4-(Difluoromethyl)thiazol-2-yl)-1H-pyrrolo[3,2-b]pyridin-2-yl)pyridin-2-yl)acetamide]
25 | 0.001 µM | 0.114 µM | COc1ccc(-c2c(-c3ccnc(NC(C)=O)c3)[nH]c3c(CO)ccnc23)cn1 [Example 274, N-(4-(7-(Hydroxymethyl)-3-(6-methoxypyridin-3-yl)-1H-pyrrolo[3,2-b]pyridin-2-yl)pyridin-2-yl)acetamide]
26 | 0.001 µM | 0.279 µM | CC(=O)Nc1cc(-c2[nH]c3c(C(C)O)ccnc3c2-c2cccc(Cl)n2)ccn1 (stereo not drawn) [Example 263, N-(4-(3-(6-Chloropyridin-2-yl)-7-(1-hydroxyethyl)-1H-pyrrolo[3,2-b]pyridin-2-yl)pyridin-2-yl)acetamide]
27 | 0.0311 µM | > 15 µM | COc1ccc(-c2c(-c3ccnc(NC(C)=O)c3)[nH]c3cc(N4CCC(NC(C)=O)CC4)cnc23)nc1 [Example 159, N-(4-(6-(4-Acetamidopiperidin-1-yl)-3-(5-methoxypyridin-2-yl)-1H-pyrrolo[3,2-b]pyridin-2-yl)pyridin-2-yl)acetamide]
28 | 0.001 µM | 1.85 µM | CC(=O)Nc1cc(-c2[nH]c3cc(Br)cnc3c2-c2cccc(C(F)F)n2)ccn1 [Example 272, N-(4-(6-Bromo-3-(6-(difluoromethyl)pyridin-2-yl)-1H-pyrrolo[3,2-b]pyridin-2-yl)pyridin-2-yl)acetamide]
29 | 0.0025 µM | 0.815 µM | COc1cnc2c(-c3csc(C)n3)c(-c3ccnc(NC(C)=O)c3)[nH]c2c1 [Example 210, N-(4-(6-Methoxy-3-(2-methylthiazol-4-yl)-1H-pyrrolo[3,2-b]pyridin-2-yl)pyridin-2-yl)acetamide]
30 | 0.182 µM | > 15 µM | CC(=O)Nc1cc(-c2[nH]c3cc(F)cnc3c2-c2ncc(C(F)F)s2)ccn1 [Example 182, N-(4-(3-(5-(Difluoromethyl)thiazol-2-yl)-6-fluoro-1H-pyrrolo[3,2-b]pyridin-2-yl)pyridin-2-yl)acetamide]
